{"source": "a melting point compilation (Tetko et al.; mined from patent text by program, amines drawn as free bases though some values may be those of a salt)"}
{"units": {"melting point": "°C"}}
{"smiles": "CCCc1nc2c(N)nc3cc(Oc4ccccc4N)ccc3c2n1CC(C)C", "melting point": "197 to 199"}
{"smiles": "CCOC(=O)C1=C(C)NC(c2nccn2Cc2ccccc2)=NC1c1ccc(F)cc1Cl", "note": "(stereo not given)", "melting point": "114 to 117"}
{"smiles": "CCCn1cc(C(=O)Nc2nccs2)c2ccc(Cl)cc21", "melting point": "175 to 176"}
{"smiles": "N#CN=C(NCCSCc1ncccc1Br)NCCSCc1ncccc1Br", "melting point": "118 to 119"}
{"smiles": "O=C(O)CCc1conc1-c1ccc(Cl)c(Cl)c1", "melting point": "181 to 182"}
{"smiles": "CCN(CC)CC1CCCCN1CC(=O)N1c2ccccc2C(=O)Nc2cccnc21", "note": "(stereo not given)", "melting point": "210 to 212"}
{"smiles": "COC(=O)CCCCCCCCCCCCCCCCCCCN1C(=O)c2ccccc2C1=O", "melting point": "86.5 to 87.5"}
{"smiles": "CNc1ccncc1N", "melting point": "163 to 165"}
{"smiles": "COc1ccccc1-n1cnc2c(C(N)=O)nc(Nc3cccc(O)c3)nc21", "melting point": "155 to 157"}
{"smiles": "O=c1[nH]c2cscc2c(=O)n1CCN1CCC(=C(c2ccc(F)cc2)c2ccc(F)cc2)CC1", "melting point": "204 to 206"}
{"smiles": "O=C1OC(=O)c2c1ccc1sc3ccccc3c21", "melting point": "248 to 250"}
{"smiles": "CC(=O)Oc1cnccc1CCCOc1cccnc1Oc1ccccc1", "melting point": "79 to 80"}
{"smiles": "Cc1ccc(S(=O)(=O)N2[C@H](CCCNS(C)(=O)=O)CC[C@@H]2c2ccc(F)cc2)cc1", "note": "(racemic)", "melting point": 123}
{"smiles": "CC(=O)N(C)c1cccc(Sc2ccc([N+](=O)[O-])cc2)c1", "melting point": "66 to 68"}
{"smiles": "CC(C)C[C@@H](C#N)NC(=O)[C@@H]1CCCC[C@@H]1NC(=O)c1cc2ccccc2n1CCO", "melting point": "59 to 63.5"}
{"smiles": "CCCSc1cc(-c2c[nH]nc2C(F)(F)F)ccc1C(=O)OC", "melting point": "114 to 116"}
{"smiles": "O=C1CC2CS(=O)(=O)c3ccccc3C2=NN1c1ccc(Cl)cc1", "note": "(stereo not given)", "melting point": "168 to 170"}
{"smiles": "Fc1cc(F)c(-c2c(Cl)nc3ncnn3c2Cl)c(F)c1", "melting point": "125 to 126"}
{"smiles": "COC(=O)C(=Cc1ccc(OCCc2nc(-c3ccccc3)oc2C)cc1)C(=O)OC", "melting point": "104 to 105"}
{"smiles": "COc1cn(-c2cccc(C(F)(F)F)c2)nc(C(=O)N(C)OC)c1=O", "melting point": "170 to 171"}
{"smiles": "O=C(Nc1ccc(Cl)c(C(F)(F)F)c1)N1COc2cc(Oc3ccnc(Cl)n3)ccc21", "melting point": "140 to 142"}
{"smiles": "CCc1nc2cc(C(=O)NC)c(Cl)cc2n1-c1ccc(CCOC(=O)NS(=O)(=O)c2ccc(C)cc2)cc1", "melting point": "201 to 204"}
{"smiles": "CCN1C(=O)CCCc2ccc(Nc3ncc(Br)c(Nc4c(F)cccc4C(=O)NC)n3)cc21", "melting point": "231 to 232"}
{"smiles": "c1ccc(CN2CCN(c3cccc4cccnc34)CC2)cc1", "melting point": "116 to 118"}
{"smiles": "O=C1CCC2=C1C(c1ccc(F)c(F)c1)C1=C(CCS1)N2", "note": "(stereo not given)", "melting point": "> 260"}
{"smiles": "Cn1ccc(-c2[nH]nc3c2C(=O)c2c(NC(=O)NN4CCOCC4)cccc2-3)c1", "melting point": 301}
{"smiles": "CN(C(=O)Cc1ccc(Cl)c(Cl)c1)[C@@H]1CCC(=O)C[C@H]1N1CCCC1", "note": "(relative stereo)", "melting point": "148 to 149"}
{"smiles": "N#CCCNC(=O)c1cccc(-c2cccc(Oc3cncc(Cl)c3)n2)c1", "melting point": "143 to 144"}
{"smiles": "CN(C)S(=O)(=O)c1cc(N=C=O)ccc1Cl", "melting point": "82 to 85"}
{"smiles": "CC(=O)Oc1ccc2c(c1)cc(C(=O)O)n2C(C)=O", "melting point": "142 to 145"}
{"smiles": "O=Cc1ccc2c(c1)C=C(C(=O)O)C(C(F)(F)F)O2", "note": "(stereo not given)", "melting point": "211 to 216"}
{"smiles": "COC(=O)C1C(=O)CC2CCC1N2C", "note": "(mixture of isomers)", "melting point": "104 to 107"}
{"smiles": "COc1ccc(CCNc2nc(Cl)nc(NCCc3ccc(OC)c(OC)c3)n2)cc1OC", "melting point": 186}
{"smiles": "CC(C)(C)OC(=O)CN(C(=O)CN1C(=O)c2ccccc2C1=O)c1ccccc1", "melting point": 126}
{"smiles": "N#Cc1ccc2c(c1)c(CCN1C(=O)c3ccccc3C1=O)cn2Cc1ccccc1", "melting point": "182 to 184"}
{"smiles": "O=c1[nH]cnc2ccc(C=Cc3ccncc3)cc12", "melting point": "307 to 309"}
{"smiles": "CC(=O)Nc1nc2c(Oc3cc(-c4ccc(C(F)(F)F)nc4NC4CCN(C(C)C)C4)ncn3)cccc2s1", "note": "(stereo not given)", "melting point": "140 to 141"}
{"smiles": "CC(O)(CCN1C(=O)c2ccccc2C1=O)c1ccc(-c2ccc(Cl)cc2)cc1", "note": "(stereo not given)", "melting point": "177 to 179"}
{"smiles": "OCc1cc2ccc3ccc4ccccc4c3c2o1", "melting point": "125 to 126"}
{"smiles": "Nc1ccc2oc3c(c2c1)CCC3", "melting point": "86.5 to 88.5"}
{"smiles": "CSC[C@H](C)NC(=O)c1c(I)cccc1C(=O)O", "melting point": "132 to 134"}
{"smiles": "CC1(C)CC(=O)c2c(nc(C3CCCC3)c(C(=O)c3ccc(C(F)(F)F)cc3)c2-c2ccsc2)C1", "melting point": "236 to 238"}
{"smiles": "Cc1ccc(-c2cccc(C(N)=NO)c2)cc1", "melting point": "134 to 136"}
{"smiles": "CCOc1cc2c(cc1OCC)CCCC(C(=O)N1CCN(Cc3cc(OC)c(OC)c(OC)c3)CC1)=C2", "melting point": "133 to 134"}
{"smiles": "CNC1(c2ccccc2Cl)C(=O)Nc2ccc(C)cc21", "note": "(stereo not given)", "melting point": "186 to 187"}
